This is an account of results in publication PMC3667588 (Journal of pharmacological and toxicological methods, 2012).

For orientation: EC50 means the concentration needed to bring the measured effect to its halfway point.

Several values for one entry are separate records, joined by “and”; a condition that tells them apart may be missing. Equal entries are not always repeated. Where two headings read alike, the source gives them in different places.

For data set [1], the system named is hiPSC-derived cardiomyocytes. Briefly: KIC spontaneous calcium transients in hiPSC-derived cardiomyocytes. Type of data set: cell-based, human. Particulars: for EC50 Decay (in words) / EC50 FWHM (in words) / EC50 Rise Time (in words) / EC50 T75-25 (in words): N.S., not significant vs vehicle by ANOVA/Dunnett; for Effect on spontaneous calcium transient (in words): dose-response.

The subject of data set [2] is L-type Ca^2+ channel. Particulars: CR-mc; ref Ogawa, et al., 1992; cited from earlier work.
The subject of data set [3] is hiPSC-CMs. Type of data set: cell-based, human. Particulars: for Effect on paced [Ca^2+]i transients at 1 µM / Effect on paced [Ca^2+]i transients at 10 µM: 1 Hz pacing; for Effect on paced [Ca^2+]i transients at 0.1 µM: 4 stimulations at 1 Hz.
In data set [4] the test system is hERG. The following applies: cited from earlier work; for Reported EC50/IC50: PC-cc, et al.
Data set [5] has as its system Na^+ channel. The following applies: PC-Xl; ref Ramos & O'Leary, 2004; cited from earlier work.
For data set [6], the system named is KATP channel. Particulars: TM-ec; ref Houjou, et al., 1996; cited from earlier work.
In data set [7] the test system is hERG K^+ channel. Particulars: PC-Xl; ref Hansen, et al., 2006; cited from earlier work.
Data set [8] concerns NRVMs. The experiment in a line: KIC Ca2+ transient analysis in neonatal rat ventricular myocytes. It is filed as cell-based. The following applies: for FWHM / T75-25 / TDecay / TRise: NRVMs treated three days with 100 nM T3, Ca2+ transient.
For data set [9], the system named is NRVMs. Briefly: KIC calcium transients in T3-treated NRVMs paced at 2 Hz. Type of data set: cell-based, rat. Particulars: NRVMs after T3 treatment, 100 µM, 12 seconds recording.
Setting [10] is: read-out: EC50 Decay, spontaneous calcium transients, hiPSC-CMs.
[11] abbreviates: read-out: EC50 FWHM, spontaneous calcium transients, hiPSC-CMs.
Where [12] appears, read: read-out: EC50 Rise Time, spontaneous calcium transients, hiPSC-CMs.
[13] abbreviates: read-out: EC50 T75-25, spontaneous calcium transients, hiPSC-CMs.
Where [14] appears, read: Homo sapiens, Cardiomyocyte, read-out: EC50 Decay.
The mark [15] stands for this setting: Homo sapiens, Cardiomyocyte, read-out: EC50 FWHM.
The mark [16] stands for this setting: Homo sapiens, Cardiomyocyte, read-out: EC50 Rise Time.
[17] abbreviates: Homo sapiens, Cardiomyocyte, read-out: EC50 T75-25.
Setting [18] is: Average CTR minus average T3 (100 nM, three days).

In the case of `CC(=O)Oc1ccccc1C(=O)O` [Aspirin], in [1], the “EC50 Decay (in words)” value is recorded as “N.S”, the “EC50 FWHM (in words)” value was “N.S”, the “EC50 Rise Time (in words)” value is reported as “N.S” and the “EC50 T75-25 (in words)” value was “N.S”. For the same compound, in [1] (hiPSC-CMs), the “Effect on spontaneous calcium transient (in words)” value is “minimal effect only at the highest concentrations”.

For the compound `COC(=O)C1=C(C)NC(C)=C([N+](=O)[O-])C1c1ccccc1C(F)(F)F` (stereo not drawn) [Bay K 8644], in [2], the “Reported EC50/IC50” value is 10–100 nM CR-mc. The “Effect on spontaneous calcium transient (in words)” value in data set [1] (hiPSC-CMs) is “increased the transient amplitude and prolonged its duration”. Also, the EC50 stood at 6.38 nM in [1] (setting [10]), 11 nM in data set [1] (setting [11]), 1300 nM in [1] (setting [12]) and 5.48 nM in data set [1] (setting [13]).

As for `COc1cc(N)c(Cl)cc1C(=O)NC1CCN(CCCOc2ccc(F)cc2)CC1OC` (stereo not drawn) [Cisapride], the “Effect on paced [Ca^2+]i transients at 1 µM” value in data set [3] is “almost fused and the maxima were reduced to about half of the initial peak”. For the same compound, the “Effect on paced [Ca^2+]i transients at 10 µM” value in data set [3] was “narrowed and follow-on maxima were decreased”. The “Effect on paced [Ca^2+]i transients at 0.1 µM” value in data set [3] is “anomalous [Ca^2+]i kinetics”. For the same compound, the figures for the EC50 in [1] (setting [14]), in data set [1] (setting [15]) and in data set [1] (setting [16]) were 147 nM, 149 nM and 154 nM, respectively. For the same compound, the “EC50 T75-25 (in words)” value in [1] was “N.S”. Also, the “Effect on spontaneous calcium transient at 10 nM” value in data set [1] (hiPSC-CMs, 10 nM) was “prolonged the calcium transient”. Also, the “Effect on spontaneous calcium transient at 100 nM” value in data set [1] (hiPSC-CMs, 100 nM) is “reduction in the intensity of the transient and prolongation of the late phase of the decay”. Moreover, the “Effect on spontaneous calcium transient at higher concentrations” value in data set [1] (hiPSC-CMs, concentrations above 100 nM) was “completely inhibited the occurrence of spontaneous transients”. The “Reported EC50/IC50” value in data set [4] (ref Mohammad, 1997, Potet, 2001, Toga, 2007) is 6.5–240 nM PC-cc.

For `CN(CCOc1ccc(NS(C)(=O)=O)cc1)CCc1ccc(NS(C)(=O)=O)cc1` [Dofetilide], the half-maximal effective concentration (EC50) in data set [1] (setting [14]) stood at 0.75 nM. In [1] (setting [17]), the EC50 came to 5.87 nM. In data set [1], the “EC50 FWHM (in words)” value is on record as “N.S” and the “EC50 Rise Time (in words)” value is on record as “N.S”.

Take `Cc1cccc(CCN2CCC(C(=O)c3ccc(NS(C)(=O)=O)cc3)CC2)n1` [E-4031]: the EC50 worked out at 45.7 nM in data set [1] (setting [10]), 44.1 nM in [1] (setting [11]), 38.6 nM in [1] (setting [12]) and 82.2 nM in [1] (setting [13]).

Consider `O=C(NCC1CCCCN1)c1cc(OCC(F)(F)F)ccc1OCC(F)(F)F` (stereo not drawn) [Flecainide], for which the concentration for a half-maximal effect (EC50) in data set [1] (setting [14]) turned out to be 1010 nM; in data set [1] (setting [16]) it was 9670 nM; in data set [1] (setting [17]) it was 1130 nM. The “EC50 FWHM (in words)” value in data set [1] was “N.S”. In addition, the “Reported EC50/IC50” value in [5] is reported as 7.4 µM PC-Xl.

In the case of `CC1(C)Oc2ccc(C#N)cc2[C@@H](N2CCCC2=O)[C@@H]1O` [Levcromakalim], in data set [6], the “Reported EC50/IC50” value is recorded as 1.73 µM TM-ec. The EC50 was 5280 nM in data set [1] (setting [14]), 9160 nM in [1] (setting [15]), 3720 nM in data set [1] (setting [16]) and 3070 nM in data set [1] (setting [17]).

On to `CCOc1cc(N)c(Cl)cc1C(=O)NCC1CN(Cc2ccc(F)cc2)CCO1` (stereo not drawn) [Mosapride], for which, in [3], the “Effect on paced [Ca^2+]i transients at 1 µM” value is “no discernible differences”, the “Effect on paced [Ca^2+]i transients at 10 µM” value is listed as “pattern similar to 0.1 µM cisapride” and the “Effect on paced [Ca^2+]i transients at 0.1 µM” value was “no discernible differences”. Further, in data set [1], the “EC50 Decay (in words)” value was “N.S”, the “EC50 FWHM (in words)” value is on record as “N.S”, the “EC50 Rise Time (in words)” value is reported as “N.S” and the “EC50 T75-25 (in words)” value is recorded as “N.S”. Besides, in [1] (hiPSC-CMs), the “Effect on spontaneous calcium transient (in words)” value is recorded as “did not induce statistically significant changes”. In data set [1] (hiPSC-CMs, listed as mosapride), the “Effect on spontaneous calcium transient (in words)” value is reported as “minimal effect only at the highest concentrations”. The “Affinity for hERG relative to cisapride” value in [4] (ref Toga, Kohmura, & Kawatsu, 2007) is reported as “three orders of magnitude less affinity for hERG”.

`O=C(Nc1cc(C(F)(F)F)ccc1O)Nc1cc(C(F)(F)F)ccc1O` [NS1463, 1,3-Bis-(2-hydroxy-5-trifluoromethyl-phenyl)-urea]: in data set [7], the “Reported EC50/IC50” value is recorded as 10.5µM PC-Xl. Also, the half-maximal effective concentration (EC50) in [1] (setting [14]) was found to be 2540 nM; in [1] (setting [15]), 7000 nM; in data set [1] (setting [16]), 3890 nM; in data set [1] (setting [17]) it was 2330 nM.

For `CC(C)NCC(O)c1ccc(NS(C)(=O)=O)cc1` (stereo not drawn) [Sotalol], the EC50 turned out to be 85700 nM in data set [1] (setting [14]), 86300 nM in [1] (setting [15]) and 89100 nM in data set [1] (setting [16]). Moreover, in data set [1], the “EC50 T75-25 (in words)” value was “None”. Further, the “Reported EC50/IC50” value in data set [4] (ref Peng, 2010) is recorded as 268µM PC-cc.

For the compound `N[C@@H](Cc1cc(I)c(Oc2ccc(O)c(I)c2)c(I)c1)C(=O)O` [T3, Triiodothyronine], in data set [8] (setting [18]), the “Difference in ms, FWHM” value was determined as 311 ms; the “Difference in ms, T75-25” value is 215 ms; the “Difference in ms, TDecay” value came out at 190 ms; the “Difference in ms, TRise” value was found to be 119 ms. Also, in data set [8], the FWHM turned out to be 567 ± 9 ms; the T75-25 stood at 439 ± 44 ms; the TDecay was 462 ± 15 ms; the TRise is 104 ms and 104 ± 14 ms. In [8] (listed as T3-1), this compound came in with an FWHM of 567 ms, a T75-25 of 390 ms, a TDecay of 447 ms and a TRise of 120 ms. Moreover, in data set [8] (listed as T3-2), the FWHM is 558 ms, the T75-25 is given as 450 ms, the TDecay was 462 ms and the TRise worked out at 96 ms. In addition, in data set [8] (listed as T3-3), the FWHM is given as 576 ms, the T75-25 is 477 ms and the TDecay stood at 477 ms. Moreover, in data set [8] (T3 vs control NRVMs), the “Reduction of FWHM” value is listed as 35%, the “Reduction of T75-25” value is recorded as 33%, the “Reduction of TDecay” value worked out at 29% and the “Reduction of TRise” value is given as 53%.

Regarding `COc1ccc(CCN(C)CCCC(C#N)(c2ccc(OC)c(OC)c2)C(C)C)cc1OC` (stereo not drawn) [Verapamil], the EC50 in [1] (setting [14]) worked out at 170 nM; in data set [1] (setting [15]), 260 nM; in data set [1] (setting [16]) it was 460 nM; in [1] (setting [17]), 390 nM. The “Effect on spontaneous calcium transient (in words)” value in data set [1] (hiPSC-CMs) is “dose-dependent reduction in the intensity and duration of the calcium transient”; in data set [1] (hiPSC-CMs, listed as verapamil) it was “completely blocked the Ca^2+ transient”.

Regarding `C[C@@H]1CN(c2c(F)c(N)c3c(=O)c(C(=O)O)cn(C4CC4)c3c2F)C[C@H](C)N1` [sparfloxacin], the “Effect on paced calcium transients” value in data set [9] is reported as “highly asynchronous calcium transients”.
